The test system of the data set is Homo sapiens. Kind of data set: Evaluation of pharmacokinetic parameters for Rifampin in serum following single oral administration of 10 mg/kg Rifampin to pediatric patients. The conditions noted are these: in vivo, dosed compound id 35, dosed compound name RIFAMPICIN, gender male and female, regimen Single dose, tissue Serum. Type of data set: ADME, organism-based. Also on record: dose 600 mg, dose 10 mg/kg, route oral.

Take `CO[C@H]1/C=C/O[C@@]2(C)Oc3c(C)c(O)c4c(O)c(c(/C=N/N5CCN(C)CC5)c(O)c4c3C2=O)NC(=O)/C(C)=C\C=C\[C@H](C)[C@H](O)[C@@H](C)[C@@H](O)[C@@H](C)[C@H](OC(C)=O)[C@@H]1C` [RIFAMPIN]: the Tmax (commonly the time at which the peak concentration occurs) turned out to be 1 h.
